Patent US4466980A, “Thiaprostaglandin E1 derivatives, process for production thereof, and pharmaceutical use thereof” (Teijin Limited, priority 1980, dated 1984)
Values after ≈ are worked out from the molar mass of the structure shown.

Experiments:
[1] = system: platelet aggregation; test: in vitro inhibitory activity of platelet aggregation (ADP); type: cell-based, rabbit (Japanese domestic white male); settings: Oryctolagus cuniculus, rabbit PRP, 10 μM ADP, 37° C., read-out: IC50 (minimum concentration which inhibited more than 50% of platelet aggregation)
Method: The in vitro platelet aggregation imhibiting activity of the compounds of the invention were examined by using rabbits. Blood was withdrawn from the ear vein of Japanese domestic white male rabbits weighing 2.5 to 3.5 kg. A mixture of a 3.8% trisodium citrate solution and the blood in a ratio of 1:9 was centrifuged at a speed of 1000 rpm for 10 minutes. The upper layer was separated as platelet-rich plasma (PRP). The lower layer was further centrifuged at a speed of 2800 rpm for 10 minutes. The upper layer was separated as platelet-poor plasma (PPP). The number of platelets was adjusted to 6×10^5 /μl to 7×10^5 /μl by diluting the PRP with PPP. 25 microliters of the test compounds prepared as shown below was added in an amount of 25 to 250 microliters of PRP after the adjustment, and the mixture was pre-incubated at 37° C. for 2 minutes, and then 10 μM (final) of ADP was added. By using an aggregometer, changes in transmission were recorded.
The drug was dissolved in ethanol to a concentration of 10 mg/ml, and successively diluted with phosphate buffer (pH 7.4) prior to use.
The rate of inhibition of platelet aggregation was determined from the following equation. [formula] To : the transmittance of the system containing the phosphate buffer, T: the transmittance of the sytem to which the test drug was added.
The minimum concentration of the drug which inhibited more than 50% of platelet aggregation was shown as an IC50 value.

[2] = system: ethanol ulcer (stomach); test: ethanol ulcer test (anti-ulcer action); type: in vivo, SD-strain rats
Method: An ethanol ulcer test was carried out by the following processure.
SD-strain rats (body weight 200 to 220 g; 7 weeks old) were fasted for 24 hours, and a solution of each of the test compounds in physiological saline buffered with phosphate buffer at pH 7.5 was orally administered. Thirty minutes after the administration, 75% ethanol was orally administered in a dose of 1 ml/kg. One hour later, the abdomen was incised to isolate the stomach. […] The total of these lengths was defined as the ulcer index. A control group was given physiological saline buffered with phosphate buffer (pH 7.5) and 75% ethanol.

[3] = system: blood pressure and heart beat rate of rats; test: hypotensive activity and heart beat rate, intravenous injection in anesthetized rats; type: in vivo, male wister rats; settings: Rattus norvegicus, i.v.; for ED (10% increase of heart rate): read-out: H-ED10 (dosage causing a 10% increase of the heart rate); for ED (20% lowering of blood pressure): read-out: P-ED20 (dosage causing a 20% lowering of the mean blood pressure)
Method: (1) The actions of the thiaprostaglandin E1 derivatives of the invention on the blood pressure and heart beat rate of rats were examined by intravenous injection under anesthesia. Male wister rats weighing about 250 g were used. Urethane (500 mg/kg) and α-chloralose (100 mg/kg) were intraperitoneally administered to the rats. The rats were anesthetized and fixed in place. Each of the test compounds was dissolved in a small amount of ethanol and diluted with physiological saline to adjust the final ethanol concentration to not more than 5%. The solution was intravenously injected into the rats through a catheter inserted into the femoral vein. The blood pressure of the rats was measured by a pressure transducer through a catheter inserted into the carotid artery of the rats. The heart beat rate was determined from the blood pressure pulse. The action of the test compound of the blood pressure was expressed as the dosage (p-ED20, μg/kg) of the test compound which caused a 20% lowering of the mean blood pressure before administration of the compound. The action of the test compound on the heart rate was expressed as the dosage (H-ED10, μg/kg) of the test compound which caused a 10% increase of the heart rate from the heart beat rate before administration of the test compound.

[4] = system: platelet aggregation; test: extra vivo inhibitory activity of platelet aggregation after oral administration; type: in vivo, guinea pigs (Hartley strain); settings: Cavia porcellus; for inhibition at 3 mg/kg: 3 mg/kg p.o.; for inhibition at 10 mg/kg: 10 mg/kg p.o.
Method: The extra vivo platelet aggregation inhibitory activity of the 7-thiaprostaglandin E1 derivatives of the invention were measured by using guinea pigs. A test drug prepared as a 30% ethanol solution of each of the compounds of the invention in ethanol diluted with physiological saline and as a control 30% ethanol solution were orally adminstered in a dose of 1 ml/kg to Hartleystrain guinea pigs having a body weight of 350 to 450 g which had been fasted for 17 hours. 1 hour or 4 hours after the administration of the compound, blood was drawn off by the cardiac puncture using trisodium citrate so that the ratio of the blood to 3.8% trisodium citrate was 9:1. The blood was centrifuged at a speed of 700 rpm for 10 minutes. The upper layer was separated as plateletrich plasma (PRP). The lower layer was further centrifuged at a speed of 2800 rpm for 10 minutes. The upper layer was separated as platelet poor plasma (PPP). 250 microliters of the resulting PRP was taken into an aggregometer cuvette, and incubated at 37° C. for 2 minutes. Then, 25 microliters of a […] ADP disodium solution adjusted by dissolving with 0.1M tris-HCl buffer (ph 8.0) was added. The aggregation curve was recorded for 3 minutes. The maximum degree of aggregation of platelets within this time period was read, and the rate of inhibitor of platelet aggregation was calculated from the following equation. [formula] TC : the transmittance of a control group (to which only the 30% ethanol solution was administered),
TD : the transmittance of a drug administered group.

[5] = system: platelet aggregation; test: platelet aggregation inhibiting activity of prior 11-deoxy-7S-prostaglandins E1 (inventors' investigations); type: cell-based
[6] = system: blood pressure of conscious rats; test: action on blood pressure of conscious rats, oral; type: in vivo, male wister rats
Method: (2) The thiaprostaglandin E1 derivatives of the invention were orally administered to conscious rats, and their action on the blood pressure was examined.
Male wister rats weighing about 250 g were used as experimental animals. These rat had been fasted for 16 hours before the start of the experiment. A catheter was inserted into the femoral artery of the rats under ether anesthesia, and then the rats were restrained within a Bollman cage. After more than 1 hour from awakening, each of the test compounds was orally administered.
The test compound was dissolved in a small amount of ethanol, and then diluted with water to adjust the final concentration of ethanol to not more than 5%. The mean blood pressure was measured by means of a pressure transducer through the catheter inserted into the femoral artery.

[7] = system: blood pressure of DOCA hypertensive rats; test: action on blood pressure of conscious DOCA hypertensive rats, oral; type: in vivo, male wistar rats
Method: (3) The compound (No. 138) of the invention was orally adminstered to DOCA hypertensive rats (induced by deoxycholticosteron acetate) in conscious, and its action on the blood pressure was examined.
Male wistar rats weighing about 160 g were rendered hypertensive. Specifically, one kidney was removed from the rats, and DOCA was subcutaneously administered to the rats in a dose of 10 mg/kg twice a week. While the rats were allowed to drink a 1% aqueous solution of sodium chloride, they were kept for more than 4 weeks to induce hypertension. The average blood pressure was measured in the same way as described in (2) above.

[8] = Rattus norvegicus, po, 100 μg/kg p.o., read-out: Ulcer inhibiting rate (%)

SMILES: O=C(O)CCSCCC[C@H]1C(=O)C[C@@H](O)[C@@H]1/C=C/[C@@H](O)C1CCCCC1 [Compound 403, 16,17,18,19,20-pentanor-15-cyclohexyl-4-thiaprostaglandin E1]
- IC50 [1]: 2.8 µg/mL (≈ 7.28 µM)
- Ulcer index (mm) ([2]; 100 μg/kg p.o., ** P < 0.01): 6.0 ± 3.8 mm
- inhibition at 0.1 mg/kg [2, 8]: 91.2%
- antiulcer action (in words) ([2]; p.o., Table 6): nearly the same antiulcer action as prostaglandin E1

SMILES: CCCCC[C@H](O)/C=C/[C@H]1[C@H](O)CC(=O)[C@@H]1CCCCCCC(=O)O [PGE1, prostaglandin E1]
- ED (10% increase of heart rate) [3]: > 10 µg/kg
- ED (20% lowering of blood pressure) [3]: 1.21 µg/kg
- inhibition at 3 mg/kg ([4]; 1 hr): 0%
- inhibition at 3 mg/kg ([4]; 4 hr): 25.9%
- inhibition at 10 mg/kg ([4]; 1 hr): 0%
- inhibition at 10 mg/kg ([4]; 4 hr): 16.9%
- Ulcer index (mm) ([2]; 30 μg/kg p.o.): 26.8 ± 12.5 mm
- Ulcer index (mm) ([2]; 100 μg/kg p.o., ** P < 0.01): 1.0 ± 1.0 mm
- inhibition at 0.03 mg/kg ([2]; Rattus norvegicus, po, 30 μg/kg p.o., read-out: Ulcer inhibiting rate (%)): 60.8%
- inhibition at 0.1 mg/kg [2, 8]: 98.5%

SMILES: CCCC(C)C[C@H](O)/C=C/[C@H]1CCC(=O)[C@@H]1SCCCCCC(=O)O (stereo partly drawn) [11-deoxy-17-methyl-7S-prostaglandin E1]
- platelet aggregation inhibiting activity (in words) [5]: very weak

SMILES: CCCCC[C@H](O)/C=C/[C@H]1CCC(=O)[C@@H]1SCCCCCC(=O)OC
- platelet aggregation inhibiting activity (in words) [5]: very weak

SMILES: CCCC(C)C[C@H](O)/C=C/[C@H]1CCC(=O)[C@@H]1SCCCCCC(=O)OC (stereo partly shown)
- platelet aggregation inhibiting activity (in words) [5]: very weak

SMILES: CCCCC[C@H](O)/C=C/[C@H]1CCC(=O)[C@@H]1SCCCCCC(=O)O [11-deoxy-7S-prostaglandin E1]
- platelet aggregation inhibiting activity (in words) [5]: very weak

SMILES: COC(=O)CCCCCS[C@H]1C(=O)C[C@@H](O)[C@@H]1/C=C/[C@@H](O)C1CCCCC1 [Compound 138, 16,17,18,19,20-pentanor-15-cyclohexyl-7-thiaprostaglandin E1 methyl ester]
- ED (10% increase of heart rate) [3]: > 10 µg/kg
- ED (20% lowering of blood pressure) [3]: 0.68 µg/kg
- mean blood pressure ([6]; 1 mg/kg p.o., 0 min, in mmHg): 116 + 4
- mean blood pressure ([6]; 1 mg/kg p.o., 10 min): 99 ± 6
- mean blood pressure ([6]; 1 mg/kg p.o., 15 min): 114 ± 2
- mean blood pressure ([6]; 1 mg/kg p.o., 30 min): 116 ± 4
- mean blood pressure ([6]; 1 mg/kg p.o., 45 min): 119 ± 4
- mean blood pressure ([6]; 1 mg/kg p.o., 60 min): 120 ± 4
- mean blood pressure ([6]; 1 mg/kg p.o., 90 min): 118 ± 3
- mean blood pressure ([6]; 1 mg/kg p.o., 120 min): 118 ± 3
- mean blood pressure ([6]; 10 mg/kg p.o., 0 min): 118 ± 3
- mean blood pressure ([6]; 10 mg/kg p.o., 10 min): 92 ± 9
- mean blood pressure ([6]; 10 mg/kg p.o., 15 min): 95 ± 9
- mean blood pressure ([6]; 10 mg/kg p.o., 30 min): 108 ± 6
- mean blood pressure ([6]; 10 mg/kg p.o., 45 min): 111 ± 4
- mean blood pressure ([6]; 10 mg/kg p.o., 60 min): 112 ± 3
- mean blood pressure ([6]; 10 mg/kg p.o., 90 min): 114 ± 4
- mean blood pressure ([6]; 10 mg/kg p.o., 120 min): 117 ± 4
- hypotensive action (in words) ([6]; p.o., especially 10 mg/kg): long-lasting hypotensive action
- average blood pressure ([7]; 0.1 mg/kg p.o., 0 min): 167 ± 8
- average blood pressure ([7]; 0.1 mg/kg p.o., 10 min): 149 ± 12
- average blood pressure ([7]; 0.1 mg/kg p.o., 15 min): 156 ± 8
- average blood pressure ([7]; 0.1 mg/kg p.o., 30 min): 165 ± 7
- average blood pressure ([7]; 0.1 mg/kg p.o., 45 min): 168 ± 7
- average blood pressure ([7]; 0.1 mg/kg p.o., 60 min): 171 ± 10
- average blood pressure ([7]; 0.1 mg/kg p.o., 90 min): 177 ± 11
- average blood pressure ([7]; 0.1 mg/kg p.o., 120 min): 182 ± 13
- average blood pressure ([7]; 0.3 mg/kg p.o., 0 min): 165 ± 14
- average blood pressure ([7]; 0.3 mg/kg p.o., 10 min): 134 ± 12
- average blood pressure ([7]; 0.3 mg/kg p.o., 15 min): 141 ± 8
- average blood pressure ([7]; 0.3 mg/kg p.o., 30 min): 151 ± 7
- average blood pressure ([7]; 0.3 mg/kg p.o., 45 min): 161 ± 9
- average blood pressure ([7]; 0.3 mg/kg p.o., 60 min): 169 ± 9
- average blood pressure ([7]; 0.3 mg/kg p.o., 90 min): 170 ± 12
- average blood pressure ([7]; 0.3 mg/kg p.o., 120 min): 180 ± 10
- hypotensive action (in words) ([7]; p.o., hypertensive rats): marked hypotensive action
- inhibition at 3 mg/kg ([4]; 1 hr): 64.9%
- inhibition at 3 mg/kg ([4]; 4 hr): 23.3%
- inhibition at 10 mg/kg ([4]; 1 hr): 94.1%
- inhibition at 10 mg/kg ([4]; 4 hr): 50%
